Assay results from the NIST ThermoML archive (doi:10.1016/j.jct.2011.07.005).
Numbers after ± are expanded uncertainties.

Conditions: Liquid; for mass density: Vibrating tube method

CCCCC(CC)COC(=O)CCCCCCCCC(=O)OCC(CC)CCCC (centres undefined) [bis(2-ethylhexyl) decanedioate]
Conditions	mass density [kg/m3]	viscosity [mPa·s]
278.15 K, 101.33 kPa	924.7 ± 1.6	–
278.15 K, Concentric cylinders viscometry	–	42.04 ± 0.95
283.15 K, 101.33 kPa	921.2 ± 1.6	–
283.15 K, Concentric cylinders viscometry	–	32.77 ± 0.74
288.15 K, 101.33 kPa	917.6 ± 1.6	–
288.15 K, Concentric cylinders viscometry	–	26.01 ± 0.59
293.15 K, 101.33 kPa	913.9 ± 1.6	–
293.15 K, Concentric cylinders viscometry	–	21 ± 0.48
298.15 K, 100 kPa	909.8 ± 1.6	–
298.15 K, 101.33 kPa	910.3 ± 1.6	–
298.15 K, 1000 kPa	910.4 ± 1.6	–
298.15 K, 5000 kPa	912.8 ± 1.6	–
298.15 K, 10000 kPa	915.6 ± 1.6	–
298.15 K, 15000 kPa	918.4 ± 1.6	–
298.15 K, 20000 kPa	921.2 ± 1.6	–
298.15 K, 30000 kPa	926.4 ± 1.6	–
298.15 K, 40000 kPa	931.4 ± 1.6	–
298.15 K, 45000 kPa	933.8 ± 1.6	–
298.15 K, 50000 kPa	936.1 ± 1.6	–
298.15 K, 60000 kPa	940.6 ± 1.6	–
298.15 K, Concentric cylinders viscometry	–	17.21 ± 0.39
303.15 K, 101.33 kPa	906.7 ± 1.6	–
303.15 K, Concentric cylinders viscometry	–	14.32 ± 0.32
308.15 K, 101.33 kPa	903.1 ± 1.6	–
308.15 K, Concentric cylinders viscometry	–	12.07 ± 0.27
313.15 K, 101.33 kPa	899.5 ± 1.5	–
313.15 K, Concentric cylinders viscometry	–	10.28 ± 0.23
318.15 K, 101.33 kPa	895.9 ± 1.5	–
318.15 K, Concentric cylinders viscometry	–	8.845 ± 0.2
323.15 K, 100 kPa	892 ± 1.5	–
323.15 K, 101.33 kPa	892.3 ± 1.5	–
323.15 K, 1000 kPa	892.6 ± 1.5	–
323.15 K, 5000 kPa	895.3 ± 1.6	–
323.15 K, 10000 kPa	898.5 ± 1.6	–
323.15 K, 15000 kPa	901.7 ± 1.6	–
323.15 K, 20000 kPa	904.7 ± 1.6	–
323.15 K, 30000 kPa	910.4 ± 1.6	–
323.15 K, 40000 kPa	915.8 ± 1.6	–
323.15 K, 45000 kPa	918.4 ± 1.6	–
323.15 K, 50000 kPa	920.9 ± 1.6	–
323.15 K, 60000 kPa	925.7 ± 1.6	–
323.15 K, Concentric cylinders viscometry	–	7.679 ± 0.17
328.15 K, 101.33 kPa	888.7 ± 1.5	–
328.15 K, Concentric cylinders viscometry	–	6.727 ± 0.15
333.15 K, 101.33 kPa	885.1 ± 1.5	–
333.15 K, Concentric cylinders viscometry	–	5.939 ± 0.13
338.15 K, 101.33 kPa	881.4 ± 1.5	–
338.15 K, Concentric cylinders viscometry	–	5.275 ± 0.12
343.15 K, 101.33 kPa	877.9 ± 1.5	–
343.15 K, Concentric cylinders viscometry	–	4.719 ± 0.11
348.15 K, 100 kPa	874 ± 1.5	–
348.15 K, 101.33 kPa	874.3 ± 1.5	–
348.15 K, 1000 kPa	874.7 ± 1.5	–
348.15 K, 5000 kPa	877.7 ± 1.5	–
348.15 K, 10000 kPa	881.3 ± 1.6	–
348.15 K, 15000 kPa	884.8 ± 1.6	–
348.15 K, 20000 kPa	888.2 ± 1.6	–
348.15 K, 30000 kPa	894.5 ± 1.6	–
348.15 K, 40000 kPa	900.5 ± 1.6	–
348.15 K, 45000 kPa	903.3 ± 1.6	–
348.15 K, 50000 kPa	906 ± 1.6	–
348.15 K, 60000 kPa	911.3 ± 1.6	–
348.15 K, Concentric cylinders viscometry	–	4.248 ± 0.096
353.15 K, 101.33 kPa	870.7 ± 1.5	–
353.15 K, Concentric cylinders viscometry	–	3.843 ± 0.087
358.15 K, 101.33 kPa	867.1 ± 1.5	–
358.15 K, Concentric cylinders viscometry	–	3.494 ± 0.079
363.15 K, 101.33 kPa	863.7 ± 1.5	–
363.15 K, Concentric cylinders viscometry	–	3.169 ± 0.072
368.15 K, 101.33 kPa	859.9 ± 1.5	–
368.15 K, Concentric cylinders viscometry	–	2.902 ± 0.066
373.15 K, 101.33 kPa	856.4 ± 1.5	–
373.15 K, 1000 kPa	856.9 ± 1.5	–
373.15 K, 5000 kPa	860.3 ± 1.5	–
373.15 K, 10000 kPa	864.3 ± 1.6	–
373.15 K, 15000 kPa	868.1 ± 1.6	–
373.15 K, 20000 kPa	871.8 ± 1.6	–
373.15 K, 30000 kPa	878.8 ± 1.6	–
373.15 K, 40000 kPa	885.2 ± 1.6	–
373.15 K, 45000 kPa	888.3 ± 1.6	–
373.15 K, 50000 kPa	891.3 ± 1.6	–
373.15 K, 60000 kPa	897 ± 1.7	–
373.15 K, Concentric cylinders viscometry	–	2.661 ± 0.061
398.15 K, 1000 kPa	839 ± 1.5	–
398.15 K, 5000 kPa	842.8 ± 1.5	–
398.15 K, 10000 kPa	847.3 ± 1.6	–
398.15 K, 15000 kPa	851.6 ± 1.6	–
398.15 K, 20000 kPa	855.8 ± 1.6	–
398.15 K, 30000 kPa	863.4 ± 1.6	–
398.15 K, 40000 kPa	870.4 ± 1.6	–
398.15 K, 45000 kPa	873.7 ± 1.6	–
398.15 K, 50000 kPa	877 ± 1.6	–
398.15 K, 60000 kPa	883.1 ± 1.7	–

viscosity [mPa·s], Falling or rolling sphere viscometry
Conditions	298.15 K	313.15 K	323.15 K	348.15 K	373.15 K	398.15 K
100 kPa	17 ± 1.4	10.2 ± 0.8	7.53 ± 0.61	4.17 ± 0.34	2.67 ± 0.22	1.84 ± 0.15
1000 kPa	17.3 ± 1.4	10.3 ± 0.8	7.63 ± 0.62	4.21 ± 0.34	2.7 ± 0.22	1.86 ± 0.15
5000 kPa	18.4 ± 1.5	10.9 ± 0.9	8.09 ± 0.65	4.42 ± 0.36	2.84 ± 0.23	1.96 ± 0.16
10000 kPa	19.9 ± 1.6	11.7 ± 0.9	8.68 ± 0.7	4.69 ± 0.38	3.03 ± 0.25	2.07 ± 0.17
15000 kPa	21.5 ± 1.7	12.5 ± 1	9.29 ± 0.75	4.97 ± 0.4	3.22 ± 0.26	2.2 ± 0.18
20000 kPa	23.2 ± 1.9	13.4 ± 1.1	9.94 ± 0.8	5.28 ± 0.43	3.42 ± 0.28	2.32 ± 0.19
30000 kPa	26.8 ± 2.2	15.2 ± 1.2	11.3 ± 0.9	5.94 ± 0.48	3.83 ± 0.31	2.59 ± 0.21
40000 kPa	30.8 ± 2.5	17.3 ± 1.4	12.8 ± 1	6.68 ± 0.54	4.27 ± 0.35	2.86 ± 0.23
45000 kPa	33 ± 2.7	18.4 ± 1.5	13.6 ± 1.1	7.07 ± 0.57	4.49 ± 0.36	3.01 ± 0.24
50000 kPa	35.2 ± 2.8	19.6 ± 1.6	14.4 ± 1.2	7.48 ± 0.61	4.72 ± 0.38	3.16 ± 0.26
60000 kPa	40 ± 3.2	22 ± 1.8	16 ± 1.3	8.37 ± 0.68	5.19 ± 0.42	3.46 ± 0.28
